Assay results reported in the NIST ThermoML archive (doi:10.1016/j.jct.2011.12.013).

Assay: xn = mol fraction of the nth substance listed
Settings: Liquid, Custom Made Vibrating Tube Densimeter

C=C1CC[C@H]2C[C@@H]1C2(C)C [(1S,5S)-6,6-dimethyl-2-methylenebicyclo[3.1.1]heptane] + C=C(C)[C@H]1CC=C(C)CC1
mass density [kg/m3]
Settings	x2 = 0	x2 = 0.11	x2 = 0.2008	x2 = 0.289	x2 = 0.3961	x2 = 0.4938	x2 = 0.5906	x2 = 0.6984	x2 = 0.7993	x2 = 0.9022
283.15 K, 20000 kPa	891.3	888.1	885.4	882.8	879.6	876.8	873.9	870.9	868	864.5
283.15 K, 25000 kPa	894.2	891	888.3	885.7	882.4	879.6	876.8	873.7	870.8	867.8
283.15 K, 30000 kPa	897	893.9	891	888.4	885.2	882.5	879.7	876.5	873.6	870.4
283.15 K, 35000 kPa	899.9	896.7	893.8	891.2	887.9	885.2	882.4	879.3	876.5	873.3
283.15 K, 40000 kPa	902.6	899.3	896.3	894	890.6	887.8	885.1	881.9	879.2	876
298.15 K, 20000 kPa	880.2	877	874.1	871.8	868.7	865.8	863	859.9	857.2	854.3
298.15 K, 25000 kPa	883.3	880.1	877.2	874.9	871.8	868.9	866.2	863.1	860.2	857.3
298.15 K, 30000 kPa	886.3	883.1	880.3	877.9	874.8	871.9	869.2	866.2	863.3	860.3
298.15 K, 35000 kPa	889.3	886.1	883.5	881	877.7	874.9	872.3	869	866.5	863.4
298.15 K, 40000 kPa	892.2	889	886.5	883.9	880.7	878	875.4	871.9	869	866.1
313.15 K, 20000 kPa	869.3	866.1	863.5	860.9	857.8	854.9	852.4	849.3	846.5	843.7
313.15 K, 25000 kPa	872.6	869.5	866.8	864.2	861.1	858.1	855.6	852.5	849.8	847
313.15 K, 30000 kPa	875.7	872.6	870.1	867.5	864.3	861.4	858.7	855.7	852.9	849.9
313.15 K, 35000 kPa	878.8	875.7	873.3	870.6	867.5	864.5	862	858.7	856.1	853
313.15 K, 40000 kPa	882	878.8	876.7	873.8	870.7	867.8	865	861.8	859.1	856
328.15 K, 20000 kPa	858.2	855.3	852.6	850.1	846.9	844.3	841.5	838.9	835.9	833.1
328.15 K, 25000 kPa	861.7	858.7	856	853.5	850.4	847.7	844.9	842.1	839.4	836.4
328.15 K, 30000 kPa	865.2	862.1	859.5	857	853.9	851.2	848.5	845.4	842.7	839.7
328.15 K, 35000 kPa	868.7	865.5	862.7	860.3	857.2	854.6	851.9	848.7	846.1	843.1
328.15 K, 40000 kPa	872.2	868.8	866.1	863.7	860.7	857.8	855.3	852	849.4	846.8
343.15 K, 20000 kPa	847.7	844.7	842.1	839.6	836.7	834	831.4	828.4	825.7	822.7
343.15 K, 25000 kPa	851.4	848.4	845.8	843.5	840.3	837.6	834.9	832	829.1	826.3
343.15 K, 30000 kPa	855	852	849.4	846.9	843.9	841.2	838.6	835.6	832.9	830
343.15 K, 35000 kPa	858.6	855.5	853.1	850.6	847.4	844.8	842.3	839.1	836.7	833.6
343.15 K, 40000 kPa	862.1	859	856.7	854	850.8	848.3	845.6	842.4	840.1	837.1
358.15 K, 20000 kPa	837	834	831.4	829.2	826.3	823.7	821	818.2	815.6	812.5
358.15 K, 25000 kPa	840.9	838	835.4	833	830.1	827.4	824.9	822	819.4	816.7
358.15 K, 30000 kPa	844.8	841.9	839.2	836.8	833.8	831.2	828.6	825.7	823	820
358.15 K, 35000 kPa	848.7	845.7	843	840.6	837.5	834.9	832.4	829.4	826.8	823.9
358.15 K, 40000 kPa	852.6	849.6	846.8	844.6	841.4	838.7	836.2	833.1	830.3	827.3
